The Kd is the equilibrium constant for the complex coming apart.

We go through three compounds from ChEMBL document CHEMBL4229430, “Inducing protein-protein interactions with molecular glues” (Bioorg Med Chem Lett, 2018).

Assay [1] can be described thus: Binding affinity to tobacco 14-3-3epsilon T14-3eDC mutant expressed in Escherichia coli assessed as Kd for 14-3-3epsilon binding to H+-ATPase peptide motif by surface plasmon resonance assay. More on the design: species or system Nicotiana tabacum. A general note: SPR reads the build-up and loss of mass on a sensor chip optically.
Assay [2] has as its target T1, 14-3-3 protein zeta/delta (Homo sapiens, UniProt P63104).
T1 sequence (P63104 whole entry): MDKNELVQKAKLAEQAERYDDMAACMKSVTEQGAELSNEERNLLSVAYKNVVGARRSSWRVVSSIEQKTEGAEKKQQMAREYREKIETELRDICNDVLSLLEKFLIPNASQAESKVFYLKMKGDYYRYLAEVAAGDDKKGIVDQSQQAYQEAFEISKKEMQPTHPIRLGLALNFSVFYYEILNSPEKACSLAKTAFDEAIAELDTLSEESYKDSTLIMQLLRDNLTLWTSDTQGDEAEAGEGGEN
Kind of assay: Binding affinity to human GST-tagged 14-3-3zeta expressed in Escherichia coli assessed as Kd for 14-3-3zeta binding to H+-ATPase peptide motif by isothermal titration calorimetric method.

For `O=C(C1=C(O)C(=O)N(c2ccc(O)c(C(=O)O)c2)C1c1ccc([N+](=O)[O-])cc1)c1ccccc1` (stereo not drawn), the Kd in assay [1] is 80000 nM.
With `C=CC(C)(C)OC[C@H]1O[C@H](O[C@@H]2C3=C([C@H](C)COC(C)=O)C[C@H](O)[C@]3(C)/C=C3/[C@@H](COC)CC[C@H]3[C@@H](C)[C@H]2O)[C@H](O)[C@@H](OC(C)=O)[C@@H]1O`, the Kd in assay [2] was 700 nM.
In the case of `CC(C)CC(NC(=O)[C@H](O)[C@H](N)Cc1ccccc1)C(=O)O` (stereo partly drawn), the Kd in assay [1] was found to be 1800 nM.
